SMILES strings stand for the structures. Like-named read-outs stand apart in the source and are kept apart here.

Data set [1] concerns Colo-205 human colon adenocarcinoma cells. The data set can be described thus: MTT cytotoxicity test. It is filed as cell-based. The settings on record: Colo-205, 72 h. How it is done: (§1) All cell culture reagents were obtained from Sigma-Aldrich and plastic ware from Sarstedt (Nümbrecht, Germany). Human colon Colo-205 (chemo-sensitive) and Colo-320 (doxorubicin-resistant) adenocarcinoma and MRC-5 human embryonal lung fibroblast cell lines were purchased from LGC Promochem, Teddington, UK. The colon adenocarcinoma cells were cultured in Roswell Park Memorial Institute (RPMI) 1640 medium supplemented with 10% heat-inactivated fetal bovine serum, 2 mM L-glutamine, 1 mM sodium pyruvate and 100 mM HEPES. The MRC-5 cell line was cultured in Eagle’s Minimal Essential Medium (EMEM, Sigma-Aldrich, St. Louis, MO, USA) supplemented with a non-essential amino acid (NEAA) mixture (Sigma-Aldrich, St. Louis, MO, USA) a selection of vitamins, 10% heat-inactivated foetal bovine serum (FBS), 2 mM L-glutamine (Sigma-Aldrich, St. Louis, MO, USA), 1 mM Na-pyruvate (Sigma-Aldrich, St. Louis, MO, USA), nystatin (Sigma-Aldrich, St. Louis, MO, USA) and a penicillin-streptomycin mixture (Sigma-Aldrich, St. Louis, MO, USA) in concentrations of 100 U/L and 10 mg/L, respectively. The cells were incubated at 37 °C, in a 5% CO2, 95% air atmosphere. All cell lines were detached with Trypsin-Versene® (EDTA) solution for 5 min at 37 °C.
(§2) The tested compounds were dissolved in 90% (v/v) DMSO/H2O using 8 mM concentration, […] in the final samples the DMSO content was always lower than 1%. Then stock solutions were diluted in complete culture medium, and two-fold serial dilutions of compounds were prepared in 100 μL of the medium, horizontally. The semi-adherent colon adenocarcinoma cells were treated with Trypsin-Versene (EDTA) solution. They were adjusted to a density of 1 × 10^4 cells in 100 μL of RPMI 1640 or EMEM medium and were added to each well, with the exception of the medium control wells. The final volume of the wells containing compounds and cells was 200 μL. The plates containing Colo-205, Colo-320 or MRC-5 cells were incubated at 37 °C for 72 h; at the end of the incubation period, 20 μL of MTT solution (from a stock solution of 5 mg/mL) were added to each well. After incubation at 37 °C for 4 h, 100 μL of SDS solution (10% in 0.01 M HCI) were added to each well, and the plates were further incubated at 37 °C overnight. Cell growth was determined by measuring the optical density (OD) at 540/630 nm with a Multiskan EX plate reader (Thermo Labsystems, Cheshire, WA, USA). Inhibition of the cell growth (expressed as IC50: inhibitory concentration that reduces by 50% the growth of the cells exposed to the tested compounds) was determined from the sigmoid curve where 100 − ((ODsample − ODmedium control)/(ODcell control − ODmedium control)) × 100 values were plotted against the logarithm of compound concentrations. Curves were fitted by GraphPad Prism software (2021, Graphpad Software, San Diego, CA, USA) using the sigmoidal dose–response model (comparing variable and fixed slopes). The IC50 values were obtained from at least three independent experiments.
(In general: Formazan colour is commonly taken as a measure of viable cells.)

Data set [2] deals with Colo-320 (doxorubicin-resistant) human colon adenocarcinoma cells. The data set can be described thus: MTT cytotoxicity test. The format is cell-based. As to conditions: Colo-320, 72 h. How it is done: as §1, §2
The subject of data set [3] is MRC-5 human embryonal lung fibroblast cells. The data set can be described thus: MTT cytotoxicity test. As to conditions: MRC-5, 72 h. The format is cell-based. How it is done: as §1, §2
A short description of data set [4]: literature pKa values of analogous (thio)semicarbazones. It is filed as physicochemical. The settings on record: from literature pKa values (refs 22, 23).
For data set [5] the following is noted: pH 7.4; cited from earlier work.
The conditions of data set [6]: 30% (v/v) DMSO/H2O; cited from earlier work.
A short description of data set [7]: stability constants of Fe(II) complexes by pH-potentiometry. The format is physicochemical. As to conditions: calculated at pH 7.4, cFe = 1 μM, cligand = 10 μM, from overall stability constants reported in Refs. 22, 27, 34.
The nature of data set [8]: stability constants of Fe(III) complexes by pH-potentiometry. The format is physicochemical. The settings on record: calculated at pH 7.4, cFe = 1 μM, cligand = 10 μM, from overall stability constants reported in Refs. 22, 27, 34.
The conditions of data set [9]: cited from earlier work.
For data set [10], the system named is Colo-205 human colon adenocarcinoma cells. Also on record: method as in PMID 35287037. As to conditions: Colo-205, 72 h; cited from earlier work.
Data set [11] has as its system Colo-320 (doxorubicin-resistant) human colon adenocarcinoma cells. Also on record: method as in PMID 35287037. As to conditions: Colo-320, 72 h; cited from earlier work.
Data set [12] relates to MRC-5 human embryonal lung fibroblast cells. Also on record: method as in PMID 35287037. As to conditions: MRC-5, 72 h; cited from earlier work.

Usually IC50 stands for the concentration at which inhibition is half-maximal. Turning to `[Cl][Cu][Cl]` [CuCl2, reference compound], the IC50 in [1] worked out at 44.1 ± 0.4 µM; in data set [2] it was 48.7 ± 0.4 µM; in [3] it was 43.9 ± 0.3 µM.

As to `NC(=O)N/N=C/c1ccccc1O` [SSC, salicylaldehyde semicarbazone], the “fraction present in neutral form at pH 7.4” value in [4] worked out at 100%. The logD7.4 result in data set [5] is “+0.94”. Also, in data set [6], the pK1 was 9.32 and the pK2 was over 12.8.

On to `NC(=S)N/N=C/c1ccccc1O` [STSC, salicylaldehyde TSC], for which the “fraction present in neutral form at pH 7.4” value in data set [4] worked out at 97%. Moreover, in data set [5], the logD7.4 entry is listed as “+1.59”. Besides, the “pFe(II) (−log[Fe(II)])” value in data set [7] is listed as 8.3. Moreover, in [8], the “pFe(III)* (−logΣ[Fe(III)i(OH)j])” value is recorded as 8.4. Also, the “E1/2 of the Fe(III)/Fe(II) redox couple of the iron complexes” value in data set [9] (STSC complexes, 'as it was found', no reference given) was −0.14 V vs. NHE. The IC50 in data set [10] was 69.7 ± 1.9 µM; in [11] it was 52.2 ± 6.8 µM; in data set [12] it was 88 ± 19 µM. Moreover, the pK1 in data set [6] is listed as 8.89. In addition, the pK2 in data set [6] is listed as 12.59.

With `NC(=S)NN=Cc1ncccc1N` [Triapine, 3-aminopyridine-2-carbaldehyde thiosemicarbazone], the “pFe(II) (−log[Fe(II)])” value in [7] was 11.6. Also, in data set [8], the “pFe(III)* (−logΣ[Fe(III)i(OH)j])” value was 7.3. Moreover, the “E1/2 of the Fe(III)/Fe(II) redox couple of the iron complexes” value in [9] is “+0.08 V vs. NHE”. Also, the half-maximal inhibitory concentration (IC50) in [10] was 3.28 ± 0.63 µM; in data set [11] it was 2.17 ± 0.15 µM; in data set [12], 31.4 ± 9.2 µM.

(Values after PMC9000575, “Solution Equilibrium Studies on Salicylidene Aminoguanidine Schiff Base Metal Complexes: Impact of the Hybridization with L-Proline on Stability, Redox Activity and Cytotoxicity” (Molecules, 2022).)
